Test results: patent publication US20120029054A1, “RNA Interference Mediated Inhibition of GATA Binding Protein 3 (GATA3) Gene Expression Using Short Intefering Nucleic Acid (siNA)” (Merck Sharp & Dohme Corp., priority 2009, published 2012)

Key:
GATA3 mRNA [1] = test: GATA3 mRNA knock-down (Taqman qRT-PCR) after RNAiMax transfection of mouse RAG cells; format: cell-based; conditions: 10 nM siNA, 24 hrs, average of 2 experiments
Summary of the method: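 Murine RAG cells, 5000/well, transfected 24 h after plating with siNA (10 nM final) complexed with RNAiMax, harvested after 24 h. GATA3 mRNA quantified by TaqMan qRT-PCR with GAPDH reference; % knock-down by comparative Ct (2^−ΔΔCt) versus non-targeting control siNA.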

GATA3 mRNA [2] = test: GATA3 mRNA knock-down (Taqman qRT-PCR) after RNAiMax transfection of human MCF7 cells; screen and IC50 dose response; format: cell-based; conditions: for % KD Human: 10 nM siNA, 24 hrs; for % KD GATA3 mRNA at 10 nM: Table 4, MCF7 cells; for % KD GATA3 10 nM: Table 5, MCF7 cells
Summary of the method: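 MCF7 cells (5000/well, 24 h) transfected with siNA–RNAiMax complexes at 10 nM final siNA for 24 h without media change. GATA3 mRNA measured by TaqMan qRT-PCR, alongside β-actin and GAPDH probes. % knock-down by comparative Ct (2^−ΔΔCt) relative to non-targeting control siNA.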

[3] = mean ± S.D., * Hs00231122_m1 Taqman Assay
[4] = mean ± S.D., ** Hs00922328_m1 Taqman Assay

30263-DC: GATA3 siNA duplex, site 817: sense B cGccucuGcuucAuGGAuc TTB (SEQ 79), antisense GAUccAuGAAGcAGAGGcGUU (SEQ 80) (sense CGCCUCUGCUUCAUGGAUCTT; antisense GAUCCAUGAAGCAGAGGCGUU; chemistry not fully specified)
% KD Mouse (GATA3 mRNA [1]): 9 ± 13% | % KD Human (GATA3 mRNA [2]; MCF7 cells, * Hs00231122_m1 Taqman Assay): 74 ± 5* % | % KD Human (GATA3 mRNA [2]; MCF7 cells, ** Hs00922328_m1 Taqman Assay): 60 ± 10** % | IC50 (GATA3 mRNA [2]; MCF7 cells, mean ± S.D.): 0.104 ± 0.041 nM | % KD GATA3 mRNA at 10 nM (GATA3 mRNA [2]; [3]): 74 ± 5* % | % KD GATA3 mRNA at 10 nM (GATA3 mRNA [2]; [4]): 60 ± 10** % | % KD GATA3 10 nM (GATA3 mRNA [2]; [3]): 74 ± 5* % | % KD GATA3 10 nM (GATA3 mRNA [2]; [4]): 60 ± 10** %
